Test results taken from US8124793B2, “Derivatives of ethylene methanedisulfonate as cancer chemotherapeutic agents” (priority 2007, dated 2012).

Assays:
[1] = system: NCI-H460; test: NCI screen, growth of human tumor cells: Non-Small Cell Lung NCI-H460; type: cell-based
Procedure, shortened: (§1)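 Growth of human tumor cells, expressed as percent, was determined in the NCI screen. Test data list the cancer type and the molar concentration applied.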

[2] = system: CAKI-1; test: NCI screen, growth of human tumor cells: Renal Cancer CAKI-1; type: cell-based; details: CAKI-1 (Renal Cancer), 10^−4 molar
Procedure, shortened: as §1

[3] = system: IGROVI; test: NCI screen, growth of human tumor cells: Ovarian Cancer IGROVI; type: cell-based; details: IGROVI (Ovarian Cancer), 10^−4 molar
Procedure, shortened: as §1

[4] = system: SF-539; test: NCI screen, growth of human tumor cells: CNS Cancer SF-539; type: cell-based; details: SF-539 (CNS Cancer), 10^−4 molar
Procedure, shortened: as §1

[5] = system: AS49/ATCC; test: NCI screen, growth of human tumor cells: Non-Small Cell Lung AS49/ATCC; type: cell-based; details: AS49/ATCC (Non-Small Cell Lung), 10^−4 molar
Procedure, shortened: as §1

[6] = system: MCF7/ADR-RES; test: NCI screen, growth of human tumor cells: Breast Cancer MCF7/ADR-RES; type: cell-based; details: MCF7/ADR-RES (Breast Cancer), 10^−4 molar
Procedure, shortened: as §1

[7] = system: HCT-15; test: NCI screen, growth of human tumor cells: Colon Cancer HCT-15; type: cell-based; details: HCT-15 (Colon Cancer), 10^−4 molar
Procedure, shortened: as §1

[8] = system: M14; test: NCI screen, growth of human tumor cells: Melanoma M14; type: cell-based; details: M14 (Melanoma), 10^−4 molar
Procedure, shortened: as §1

[9] = system: human cancer cells; test: NCI screen summary over the cancers tested (negative growth of human cancer cells); type: cell-based; details: 10^−4 M conc.; cancers with negative growth / cancers tested
Method: (§2) In the NCI screening process, each compound was tested and described by a minimum of 60 data points. The test data include, but are not limited to the type of cancer, the molar concentration used in the screen, and the percent growth of the cancer. In some cases, NMR and elemental analysis were used for structural assignment.
The derivatives in the tables are grouped using the same category as in the tables 1-6.

[10] = system: SN12C; test: NCI screen, growth of human tumor cells: Renal Cancer SN12C; type: cell-based; details: SN12C (Renal Cancer), 10^−4 molar
Procedure, shortened: as §1

[11] = system: HT29; test: NCI screen, growth of human tumor cells: Colon Cancer HT29; type: cell-based; details: HT29 (Colon Cancer), 10^−4 molar
Procedure, shortened: as §1

[12] = system: OVCAR-4; test: NCI screen, growth of human tumor cells: Ovarian Cancer OVCAR-4; type: cell-based; details: OVCAR-4 (Ovarian Cancer), 10^−4 molar
Procedure, shortened: as §1

[13] = system: RXF-393; test: NCI screen, growth of human tumor cells: Renal Cancer RXF-393; type: cell-based; details: RXF-393 (Renal Cancer), 10^−4 molar
Procedure, shortened: as §1

[14] = system: SF-295; test: NCI screen, growth of human tumor cells: CNS Cancer SF-295; type: cell-based; details: SF-295 (CNS Cancer), 10^−4 molar
Procedure, shortened: as §1

[15] = system: UACC-257; test: NCI screen, growth of human tumor cells: Melanoma UACC-257; type: cell-based; details: UACC-257 (Melanoma), 10^−4 molar
Procedure, shortened: as §1

[16] = system: DU-145; test: NCI screen, growth of human tumor cells: Prostate Cancer DU-145; type: cell-based; details: DU-145 (Prostate Cancer), 10^−4 molar
Procedure, shortened: as §1

[17] = system: UACC-62; test: NCI screen, growth of human tumor cells: Melanoma UACC-62; type: cell-based; details: UACC-62 (Melanoma), 10^−4 molar
Procedure, shortened: as §1

[18] = system: HS 578T; test: NCI screen, growth of human tumor cells: Breast Cancer HS 578T; type: cell-based; details: HS 578T (Breast Cancer), 10^−4 molar
Procedure, shortened: as §1

[19] = system: HCT-116; test: NCI screen, growth of human tumor cells: Colon Cancer HCT-116; type: cell-based; details: HCT-116 (Colon Cancer), 10^−4 molar
Procedure, shortened: as §1

[20] = system: HOP-62; test: NCI screen, growth of human tumor cells: Non-Small Cell Lung HOP-62; type: cell-based; details: HOP-62 (Non-Small Cell Lung), 10^−4 molar
Procedure, shortened: as §1

[21] = system: MOLT-4; test: NCI screen, growth of human tumor cells: Leukemia MOLT-4; type: cell-based; details: MOLT-4 (Leukemia), 10^−4 molar
Procedure, shortened: as §1

[22] = system: UO-31; test: NCI screen, growth of human tumor cells: Renal Cancer UO-31; type: cell-based; details: UO-31 (Renal Cancer), 10^−4 molar
Procedure, shortened: as §1

[23] = system: CCRF-CEM; test: NCI screen, growth of human tumor cells: Leukemia CCRF-CEM; type: cell-based; details: CCRF-CEM (Leukemia), 10^−4 molar
Procedure, shortened: as §1

[24] = system: MDA-N; test: NCI screen, growth of human tumor cells: Breast Cancer MDA-N; type: cell-based; details: 10^−4 molar
Method: as §2

[25] = system: RPMI-8226; test: NCI screen, growth of human tumor cells: Leukemia RPMI-8226; type: cell-based; details: RPMI-8226 (Leukemia), 10^−4 molar
Procedure, shortened: as §1

[26] = system: MCF 7; test: NCI screen, growth of human tumor cells: Breast Cancer MCF 7; type: cell-based; details: MCF 7 (Breast Cancer), 10^−4 molar
Procedure, shortened: as §1

[27] = system: HL-60 (TB); test: NCI screen, growth of human tumor cells: Leukemia HL-60 (TB); type: cell-based; details: HL-60 (TB) (Leukemia), 10^−4 molar
Method: as §2

[28] = system: 786-0; test: NCI screen, growth of human tumor cells: Renal Cancer 786-0; type: cell-based; details: 786-0 (Renal Cancer), 10^−4 molar
Procedure, shortened: as §1

[29] = system: OVCAR-3; test: NCI screen, growth of human tumor cells: Ovarian Cancer OVCAR-3; type: cell-based; details: OVCAR-3 (Ovarian Cancer), 10^−4 molar
Procedure, shortened: as §1

[30] = system: KM12; test: NCI screen, growth of human tumor cells: Colon Cancer KM12; type: cell-based; details: KM12 (Colon Cancer), 10^−4 molar
Procedure, shortened: as §1

[31] = system: OVCAR-8; test: NCI screen, growth of human tumor cells: Ovarian Cancer OVCAR-8; type: cell-based; details: OVCAR-8 (Ovarian Cancer), 10^−4 molar
Procedure, shortened: as §1

[32] = system: SK-OV-3; test: NCI screen, growth of human tumor cells: Ovarian Cancer SK-OV-3; type: cell-based; details: SK-OV-3 (Ovarian Cancer), 10^−4 molar
Procedure, shortened: as §1

[33] = system: SNB-75; test: NCI screen, growth of human tumor cells: CNS Cancer SNB-75; type: cell-based
Procedure, shortened: as §1

[34] = system: SF-268; test: NCI screen, growth of human tumor cells: CNS Cancer SF-268; type: cell-based; details: SF-268 (CNS Cancer), 10^−4 molar
Procedure, shortened: as §1

[35] = system: ACHN; test: NCI screen, growth of human tumor cells: Renal Cancer ACHN; type: cell-based; details: ACHN (Renal Cancer), 10^−4 molar
Procedure, shortened: as §1

[36] = system: LOXIMVI; test: NCI screen, growth of human tumor cells: Melanoma LOXIMVI; type: cell-based; details: LOXIMVI (Melanoma), 10^−4 molar
Procedure, shortened: as §1

[37] = system: NCI-H522; test: NCI screen, growth of human tumor cells: Non-Small Cell Lung NCI-H522; type: cell-based; details: NCI-H522 (Non-Small Cell Lung), 10^−4 molar
Procedure, shortened: as §1

[38] = system: K562; test: NCI screen, growth of human tumor cells: Leukemia K562; type: cell-based; details: K562 (Leukemia), 10^−4 molar
Procedure, shortened: as §1

[39] = system: SK-MEL-5; test: NCI screen, growth of human tumor cells: Melanoma SK-MEL-5; type: cell-based; details: SK-MEL-5 (Melanoma), 10^−4 molar
Procedure, shortened: as §1

O=S1(=O)OCCOS(=O)(=O)C1C1c2ccccc2-c2ccccc21 [NSC 686562, ethylene 9-fluorenylmethanedisulfonate]
% Growth ([1]; NCI-H460, 10^−4 molar): −50%
% Growth ([1]; NCI-H460, 10^−5 molar): 56%
percent of growth of human tumor cells [2]: −1%
percent of growth of human tumor cells [3]: 16%
percent of growth of human tumor cells [4]: 10%
percent of growth of human tumor cells [5]: 30%
percent of growth of human tumor cells [6]: −7%
melting point: 118 to 124 °C
percent of growth of human tumor cells [7]: 15%
percent of growth of human tumor cells [8]: 23%
Percentage of cancers showing negative growth cancers tested [9]: 10^−4 M conc. = 11/38 = 29%
percent of growth of human tumor cells [10]: 28%
percent of growth of human tumor cells [11]: 26%
percent of growth of human tumor cells [12]: −39%
percent of growth of human tumor cells [13]: 25%
percent of growth of human tumor cells [14]: 22%
percent of growth of human tumor cells [15]: 28%
percent of growth of human tumor cells [16]: 9%
percent of growth of human tumor cells [17]: 10%
percent of growth of human tumor cells [18]: 24%
percent of growth of human tumor cells [19]: 0%
percent of growth of human tumor cells [20]: 5%
percent of growth of human tumor cells [21]: −32%
percent of growth of human tumor cells [22]: −3%
percent of growth of human tumor cells [23]: −3%
percent of growth of human tumor cells [24]: 17%
percent of growth of human tumor cells [25]: 9%
percent of growth of human tumor cells [26]: 23%
percent of growth of human tumor cells [27]: −20%
percent of growth of human tumor cells [28]: 2%
percent of growth of human tumor cells [29]: 25%
percent of growth of human tumor cells [30]: 22%
percent of growth of human tumor cells [31]: 29%
percent of growth of human tumor cells [32]: 25%
% Growth ([33]; SNB-75, 10^−4 molar): −28%
% Growth ([33]; SNB-75, 10^−5 molar): 28%
% Growth ([33]; SNB-75, 10^−6 molar): 64%
percent of growth of human tumor cells [34]: 29%
percent of growth of human tumor cells [35]: 9%
percent of growth of human tumor cells [36]: −27%
percent of growth of human tumor cells [37]: −19%
percent of growth of human tumor cells [38]: 16%
percent of growth of human tumor cells [39]: 4%
